Article PMC3679022, “A Cancer Specific Cell-Penetrating Peptide, BR2, for the Efficient Delivery of an scFv into Cancer Cells” (PLoS ONE, 2013)

Tested on: HCT116 cells
Experiment: Detection of apoptosis by annexin V-FITC / 7-AAD flow cytometry
Assay type: cell-based, human
Conditions: proteins 2 µM, staurosporine 0.5 µM, 24 h
Method: In addition, apoptotic cells were identified by staining with annexin V-FITC (150 ng/ml) and 7 amino-actinomycin D (7-AAD; BD Biosciences, San Diego, CA). 1×10^6 HCT116 cells were treated with PBS, staurosporine (0.5 µM), or peptide-fused scFvs (each, 2 µM) as described above. At the designated time, cells were washed twice with PBS (pH 7.4), harvested and resuspended in 500 µl of binding buffer supplemented with Annexin-V fluos (1∶100 diluted; BioBud, Seoul, Korea), and incubated for 15 min at 25°C in the dark. To detect necrosis, 7AAD was added prior to measurement. Samples were immediately subjected to FACS analysis with a FACSCalibur flow cytometer (FL1 and FL3) and WinMDI software (Joe Trotter, Scripps Research Institute). 1×10^4 cells per sample were analyzed by flow cytometry.
Figure 5 The BR2-anti-Ras scFv fusion protein promotes apoptosis by blocking Ras signaling in Ras-mutated HCT116 cells. […] The numbers on the top of the quadrants indicate the percentage of apoptotic and late apoptotic/necrotic cells counted from dot plots taken from one representative experiment, performed in triplicate. […] Changes in Ras activity level in HCT116 cells treated with anti-Ras scFv and BR2- and Tat-scFv fusion proteins (each, 1 and 2 µM) were determined by an ELISA-based activity assay; results are expressed as relative Ras activity (%). […]

CN[C@@H]1C[C@H]2O[C@@](C)([C@@H]1OC)n1c3ccccc3c3c4c(c5c6ccccc6n2c5c31)C(=O)NC4 [staurosporine]
cells in the apoptotic stage (apoptotic and late apoptotic/necrotic): 61.6%
